Data from the supplement of paper PMC4858399.

How the values were obtained:
[1] = test system: Caenorhabditis elegans N2; assay: lowest effective concentration for larval growth inhibition (size below effect threshold); higher = less potent; details: exposure time 48 h
Summary of the method: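 Log-transformed well means of per-worm extinction, read as size on a Biosort, came from 50 C. elegans N2 L1 larvae per 96-well grown 48 h at 20°C in K-medium with killed bacteria, 1% DMSO and 0.5 to 200 µM chemical. The lowest effective concentration is the first dose at which the plate-adjusted mean size is below the threshold and stays below it at every higher dose. The threshold is 5.665.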

[2] = test system: Caenorhabditis elegans N2; assay: mean nematode size ln(EXT) after 48 h, plate-adjusted (DMSO control set to 6) (ln(EXT), control-adjusted); higher = larger nematodes / less growth inhibition; details: exposure time 48 h
Summary of the method: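 In K-medium with killed OP50, 1% DMSO and 0.5–200 µM chemical, synchronised N2 L1 larvae of C. elegans (50 per well) grew for 48 h at 20°C. Extinction was read for every worm on the Biosort, with debris removed by a growth model. Natural-log values averaged per well gave mean size, which was corrected per plate by subtracting the vehicle control mean and adding 6.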

Structure (SMILES) | lowest effective concentration [1] [µM] | mean nematode size ln(EXT) (ln) ([2]; 0.5 µM) | mean nematode size ln(EXT) (ln) ([2]; 1 µM) | mean nematode size ln(EXT) (ln) ([2]; 5 µM) | mean nematode size ln(EXT) (ln) ([2]; 10 µM) | mean nematode size ln(EXT) (ln) ([2]; 50 µM) | mean nematode size ln(EXT) (ln) ([2]; 100 µM) | mean nematode size ln(EXT) (ln) ([2]; 200 µM)
CNC(C)=O [N-Methylacetamide] | > 200 | 6.09 | 6.1 | 6.07 | 6.02 | 6.03 | 6.07 | 5.84
CCCCCCCCCCCCCCCCCC(=O)O [Stearic acid] | > 200 | 6.02 | 5.96 | 6.03 | 5.96 | 5.87 | 5.85 | 5.91
ClCCOCCCl [Bis(2-chloroethyl)ether] | > 200 | 5.78 | 6.14 | 5.94 | 5.96 | 5.8 | 5.86 | 5.72
OCc1ccccc1 [Benzyl alcohol] | > 200 | 5.85 | 5.94 | 5.9 | 5.84 | 5.95 | 5.93 | 5.81
O=C1O[C@H]([C@H](O)CO)C([O-])=C1O.[Na+] [Sodium erythorbate] | > 200 | 5.96 | 5.89 | 5.94 | 5.98 | 6 | 5.9 | 5.68
COc1cnc(OC)n2nc(NS(=O)(=O)c3c(OCC(F)F)cccc3C(F)(F)F)nc12 [Penoxsulam] | > 200 | 6.17 | 6.06 | 5.98 | 6.03 | 6.01 | 6.02 | 5.72
Nc1cccc2c(N)cccc12 [1,5-Diaminonaphthalene] | > 200 | 5.81 | 5.79 | 5.81 | 5.77 | 5.64 | 5.53 | 5.73
Clc1ccccc1Cl [1,2-Dichlorobenzene] | > 200 | 5.95 | 5.9 | 5.9 | 6 | 6.02 | 6.04 | 5.68
CCN(CC)C(=O)c1cccc(C)c1 [Diethyltoluamide] | > 200 | 5.86 | 5.86 | 5.91 | 6.14 | 6 | 5.91 | 5.85
CCCC(CCC)C(=O)O [Valproic Acid] | > 200 | 5.81 | 5.92 | 6.12 | 6.03 | 6.06 | 6.03 | 5.91
CCCCC(CC)C(=O)OCCOCCOCCOC(=O)C(CC)CCCC (stereo not drawn) [Tri(ethylene glycol) bis(2-ethylhexanoate)] | > 200 | 5.84 | 5.86 | 6 | 5.97 | 5.86 | 5.84 | 5.79
Cc1ccc(O)cc1C [3,4-Dimethylphenol] | > 200 | 5.87 | 5.86 | 5.92 | 5.91 | 5.95 | 5.86 | 5.86
O=C(N[C@H]1CN2CCC1CC2)c1ccc2c(c1)OCCO2 | > 200 | 5.82 | 5.83 | 5.8 | 5.8 | 5.81 | 5.81 | 5.67
CCOC(=O)COc1cc(-c2nn(C)c(OC(F)F)c2Cl)c(F)cc1Cl [Pyraflufen-ethyl] | > 200 | 5.75 | 5.74 | 5.74 | 5.85 | 5.98 | 6.02 | 5.88
CCCCCCCCCCCCCCC [Pentadecane] | > 200 | 5.88 | 5.95 | 5.94 | 6.03 | 5.95 | 5.87 | 5.74
C[N+]1(C)CCCCC1 [Mepiquat chloride] | > 200 | 5.73 | 5.8 | 6 | 5.91 | 5.96 | 6.13 | 5.9
CCNc1ccccc1 [N-Ethyl aniline] | > 200 | 5.68 | 5.67 | 5.68 | 5.67 | 5.52 | 5.56 | 5.67
Cc1ccc(N)cc1 [4-Methyl-benzeneamine] | > 200 | 5.89 | 5.85 | 5.89 | 5.88 | 5.79 | 5.85 | 5.71
Cc1nc(N(C)C)nc(OC(=O)N(C)C)c1C [Pirimicarb] | > 200 | 5.83 | 5.88 | 6.03 | 5.99 | 6.32 | 5.99 | 5.96
COc1ccc(-c2ccccc2)cc1NNC(=O)OC(C)C [Bifenazate] | > 200 | 5.62 | 5.82 | 5.8 | 5.93 | 5.25 | 5.68 | 5.87
O=C1CCCCCN1 [Caprolactam] | > 200 | 5.8 | 5.81 | 5.84 | 5.87 | 5.88 | 5.55 | 5.68
